These results are taken from patent publication US9315522B2, “Antibacterial compounds” (JANSSEN SCIENCES IRELAND UC, priority 2012, dated 2016).

SMILES strings stand for the structures. Like-named read-outs stand apart in the source and are kept apart here.

The nature of data set [1]: In vivo pharmacokinetic and oral bioavailability in mouse. The arrangement: species or system male Swiss mice. As to conditions: for half-life: read-out: Half life (t1/2) (converted). As to the method:
The in vivo pharmacokinetics and oral bioavailability of the compound of the examples were/are investigated in male Swiss mice (fed) following single intravenous (i.v.) bolus and oral (p.o.) administration. For the i.v. and p.o. solution formulations, the compound was/is dissolved in a 20% HP-β-CD solution. The pH of the formulations was/is around pH 4. All i.v. formulations were isotonic.

Data set [2] in a line: Cytotoxicity MTT assay (HELAM). It counts as cell-based, Human. As to conditions: human, HelaM cells, read-out: HELAM (222.125) CC50. Summed up: (§1)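 HelaM cells exposed 72 h at 37° C to serial dilutions, typically 25 to 0.8 μM, in 0.5% DMSO. MTT formazan dissolved in 2-propanol, absorbance at 540 nm minus 690 nm; CC50 is concentration halving viability.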
Data set [3] concerns S. aureus. In words: Antibacterial susceptibility testing, IC90 determination with 10% human serum (STA + 10% HS). It is filed as cell-based, Staphylococcus aureus. As to conditions: human serum at final concentration of 10%. Summed up: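 Broth microdilution in Mueller-Hinton broth with 10% human serum, 5×10^5 CFU/ml S. aureus, two-fold compound dilutions (typically 63 to 0.49 μM), 1.25% DMSO, 16-20 h at 35° C. Growth read fluorometrically with resazurin (ex 540/em 590 nm); IC90 in μg/ml is the 90% growth-inhibitory concentration.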

For data set [4], the system named is Staphylococcus aureus ATCC 29213. In words: Antibacterial susceptibility testing, IC90 determination (STA). It counts as cell-based. As to conditions: resazurin; for STA (361.159) IC90: Staphylococcus aureus ATCC 29213, broth microdilution. Summed up: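 S. aureus ATCC 29213 tested by broth microdilution in Mueller-Hinton broth, 5×10^5 CFU/ml, two-fold compound dilutions typically 63 to 0.49 μM, 1.25% DMSO, 16-20 h at 35° C. Growth read fluorometrically with resazurin (ex 540/em 590 nm); IC90 in μg/ml is 90% growth-inhibitory concentration.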

Data set [5] deals with S. aureus strain ATCC 29213. In words: In vivo efficacy, peritonitis model of S. aureus infection. As to conditions: female Swiss albino mice, IP infection, inoculum 8.7 log10, IV, QD, 20% CD + 2H2T, 3 days post-infection. The text has this:
The concept of studying the in vivo effect of an antibacterial compound by treating intraperitoneally infected mice was introduced in 1911 for optochin against pneumococci (Morgenroth and Levy, 1911). The popularity of the model comes from the ease of its use with short-duration experiments, reproducible infections and simple end-points.
Methicillin-sensitive S. aureus strain ATCC 29213 was used to infect female Swiss albino mice. A Brain Heart Infusion (BHI) broth bacterial culture was inoculated the day before infection, incubated at 37° C. overnight and diluted in fresh BHI broth to the desired concentration. Intraperitoneal (i.p.) injection of ˜5×10^9 colony forming units (CFU) was performed in either of the lateral lower quadrants of the abdomen. After inoculation, mice were kept in their cages under daily observation for development of signs of infection or death. For the treatment of mice, the p.o. route was used and each mouse was treated individually by gavage. Example of Cpd No. 48 was formulated as a 20% HP-β-cyclodextrin and example of Cpd No. 38 was formulated as a water/Tween-20 suspension. The parameter used for monitoring the course of infection and the effect of treatment was death or survival of the animals over 3 days post-infection. As death could also be due to toxic side effects, a non-infected control group of 3 mice, treated with the highest dose of the compound tested, was included.

The target of data set [6] is T1, S. aureus ATCC 29213 FabI (Staphylococcus aureus, UniProt Q6GI75).
T1 sequence (Q6GI75 1-256): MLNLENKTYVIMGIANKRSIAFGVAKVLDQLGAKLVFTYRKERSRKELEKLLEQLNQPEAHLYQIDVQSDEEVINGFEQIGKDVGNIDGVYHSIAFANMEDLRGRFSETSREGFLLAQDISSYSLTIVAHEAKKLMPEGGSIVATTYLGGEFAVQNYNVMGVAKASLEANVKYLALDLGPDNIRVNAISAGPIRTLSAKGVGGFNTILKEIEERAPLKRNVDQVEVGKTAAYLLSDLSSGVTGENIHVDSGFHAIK
In words: Staphylococcus aureus FabI enzyme inhibition assay. The settings on record: read-out: FabI (300.235) IC50 (converted). It is filed as biochemical. Summed up: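 S. aureus ATCC 29213 FabI (50 μg/ml) with 250 μM crotonoyl-CoA and 625 μM NADH in 100 mM NaADA pH 6.5, inhibitor 50–0.39 μM, 30 min at room temperature. Stopped by Tris pH 9.0 shift; NADH at 340 nm versus no-compound and no-enzyme controls; IC50 in μg/ml.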

Data set [7] relates to Human HelaM cells. In words: Cytotoxicity MTT assay (HELAM). It is filed as cell-based. As to conditions: 72 hours. The method, boiled down: as §1
The mark [8] stands for this setting: male, Swiss, plasma, iv, 2.5 mg/kg, 20% HP-β-cyclodextrin.
Setting [9] is: male, Swiss, plasma, po, 10 mg/kg, 20% HP-β-cyclodextrin.

`O=C1CNCc2cc(/C=C/C(=O)N3CC4C=C(c5ccccc5)CC4C3)cnc2N1` (stereo not shown) [Cpd. No. 38] registered a Vdz in data set [1] (i.v., 2.5 mg/kg, 20% HP-β-cyclodextrin) of 3.1 L/kg. Moreover, in data set [1] (setting [8]), the AUC(0-inf) turned out to be 2000 ng·h/mL and the half-life was 1.7 h. The clearance in data set [1] (male, Swiss, plasma, iv, 2.5 mg/kg, 20% HP-β-cyclodextrin, read-out: Plasma clearance Cl (converted)) was 21.7 mL/min/kg. In data set [1] (setting [9]), the AUC(0-inf) was 2860 ng·h/mL, the Cmax amounted to 665 ng/mL, the Tmax turned out to be 1.7 h and the half-life is 2.2 h. Besides, in data set [1] (male, Swiss, plasma, po, p.o. 10 mg/kg vs i.v. 2.5 mg/kg), the bioavailability came to 36%. For the same compound, the CC50 at 72 h in data set [2] is over 10.1 µg/mL. The IC90 in data set [3] (Staphylococcus aureus, read-out: STA + 10% HS (361.169) IC90) amounted to 0.24 µg/mL. The 90% effect concentration (IC90) in data set [4] (Staphylococcus aureus, ATCC29213, Staphylococcus aureus ATCC 29213, broth microdilution, read-out: STA (361.159) IC90) is under 0.19 µg/mL. For the same compound, the “% Survival” value in data set [5] (2.5 mpk) was found to be 75%. The “% Survival” value in data set [5] (5 mpk) is 100%. Moreover, in data set [6], the IC50 is 1050 nM.
As for `O=C1CNCc2cc(/C=C/C(=O)N3CC4C=C(c5ccccc5)CC4C3)cnc2N1` (stereo not shown) [compound 47], the “HELAM (222.125) CC50” value in data set [7] is over 10.06 µg/mL. Moreover, the “STA + 10% HS (361.169) IC90” value in data set [3] amounted to 0.26 µg/mL. Further, the “STA (361.159) IC90” value in data set [4] amounted to 0.24 µg/mL. Also, the concentration for half-maximal inhibition (IC50) in data set [6] is 874 nM.
For `CN1CC(=O)Nc2ncc(/C=C/C(=O)N3C[C@@H]4CN(c5ccccc5)C[C@@H]4C3)cc2C1` [compound 60], the melting point was found to be 178 °C. For the same compound, the “HELAM (222.125) CC50” value in data set [7] is over 10.49 µg/mL. The “STA + 10% HS (361.169) IC90” value in data set [3] was determined as 3.85 µg/mL. Moreover, the “STA (361.159) IC90” value in data set [4] was 5.50 µg/mL. Moreover, in data set [6], the IC50 was 2180 nM.
Turning to `O=C1Nc2ncc(/C=C/C(=O)N3CC4C=C(c5ccccc5)CC4C3)cc2CN2CCOCC12` (stereo not shown) [compound 69], the “HELAM (222.125) CC50” value in data set [7] is 8.31 µg/mL. Besides, in data set [3], the “STA + 10% HS (361.169) IC90” value was found to be 0.22 µg/mL. The “STA (361.159) IC90” value in data set [4] was found to be 0.15 µg/mL. Further, the IC50 in data set [6] was 1030 nM.
